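Compound exposure: 48 hours, 5 concentrations, 96-well plates. At the GI50, growth is halved. Definition used: TGI = concentration required for complete inhibition of growth.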
Tests used:
Experiment in all cases: inhibition of tumour cell growth, NCI panel, 48 h
SK-MEL-5 melanoma = tested on: SK-MEL-5 melanoma
SNB-19 CNS = tested on: SNB-19 CNS
COLO 205 colon = tested on: COLO 205 colon
SK-MEL-2 melanoma = tested on: SK-MEL-2 melanoma
MDA-MB-231 breast = tested on: MDA-MB-231 breast
IGROV1 ovarian = tested on: IGROV1 ovarian
HS 578T breast = tested on: HS 578T breast
M14 melanoma = tested on: M14 melanoma
UO-31 renal = tested on: UO-31 renal
SNB-75 CNS = tested on: SNB-75 CNS
RXF 393 renal = tested on: RXF 393 renal
HT29 colon = tested on: HT29 colon
NCI-H460 lung = tested on: NCI-H460 lung
SR leukemia = tested on: SR leukemia
HCT-15 colon = tested on: HCT-15 colon
NCI/ADR-RES ovarian = tested on: NCI/ADR-RES ovarian
NCI-H226 lung = tested on: NCI-H226 lung
CCRF-CEM leukemia = tested on: CCRF-CEM leukemia
OVCAR-5 ovarian = tested on: OVCAR-5 ovarian
SN12C renal = tested on: SN12C renal
HCC-2998 colon = tested on: HCC-2998 colon
HOP-92 NSCLC = tested on: HOP-92 NSCLC
T-47D breast = tested on: T-47D breast
HOP-62 NSCLC = tested on: HOP-62 NSCLC
HL-60(TB) leukemia = tested on: HL-60(TB) leukemia
U251 CNS = tested on: U251 CNS
ACHN renal = tested on: ACHN renal
SK-MEL-28 melanoma = tested on: SK-MEL-28 melanoma
PC-3 prostate = tested on: PC-3 prostate
SF-539 CNS = tested on: SF-539 CNS
OVCAR-4 ovarian = tested on: OVCAR-4 ovarian
SK-OV-3 ovarian = tested on: SK-OV-3 ovarian
MOLT-4 leukemia = tested on: MOLT-4 leukemia
DU-145 prostate = tested on: DU-145 prostate
SF-268 CNS = tested on: SF-268 CNS
KM12 colon = tested on: KM12 colon
SW-620 colon = tested on: SW-620 colon
MCF7 breast = tested on: MCF7 breast
MALME-3M melanoma = tested on: MALME-3M melanoma
786-0 renal = tested on: 786-0 renal
A498 renal = tested on: A498 renal
RPMI-8226 leukemia = tested on: RPMI-8226 leukemia
SF-295 CNS = tested on: SF-295 CNS
BT-549 breast = tested on: BT-549 breast
CAKI-1 renal = tested on: CAKI-1 renal
HCT-116 colon = tested on: HCT-116 colon
TK-10 renal = tested on: TK-10 renal
LOX IMVI melanoma = tested on: LOX IMVI melanoma
OVCAR-8 ovarian = tested on: OVCAR-8 ovarian
NCI-H522 lung = tested on: NCI-H522 lung
OVCAR-3 ovarian = tested on: OVCAR-3 ovarian
NCI-H23 lung = tested on: NCI-H23 lung
A549 NSCLC = tested on: A549 NSCLC
K-562 leukemia = tested on: K-562 leukemia
UACC-62 melanoma = tested on: UACC-62 melanoma

In the case of COc1c(C2CC(=O)Nc3c2cnn3Cc2ccco2)cc2c(c1OC)OCO2 (stereo unspecified), the GI50 (SK-MEL-5 melanoma) is reported as 395 nM, the TGI (SK-MEL-5 melanoma) is reported as 8380 nM and the GI50 (SNB-19 CNS) is reported as > 100000 nM. The TGI (SNB-19 CNS) was > 100000 nM, the GI50 (COLO 205 colon) was 332 nM and the TGI (COLO 205 colon) was 2860 nM. The GI50 (SK-MEL-2 melanoma) was 421 nM, the TGI (SK-MEL-2 melanoma) was > 100000 nM and the GI50 (MDA-MB-231 breast) was 1670 nM. The TGI (MDA-MB-231 breast) was > 26400 nM, the GI50 (IGROV1 ovarian) was 1730 nM and the TGI (IGROV1 ovarian) was > 100000 nM. For the same molecule, the GI50 (HS 578T breast) was 490 nM, the TGI (HS 578T breast) was > 100000 nM and the GI50 (M14 melanoma) was 408 nM. The TGI (M14 melanoma) was > 100000 nM, the GI50 (UO-31 renal) was 2650 nM and the TGI (UO-31 renal) was > 100000 nM. For the same molecule, the GI50 (SNB-75 CNS) was 295 nM, the TGI (SNB-75 CNS) was > 100000 nM and the GI50 (RXF 393 renal) was 350 nM. For the same molecule, the TGI (RXF 393 renal) was > 19700 nM, the GI50 (HT29 colon) was 372 nM and the TGI (HT29 colon) was > 100000 nM. The GI50 (NCI-H460 lung) was 401 nM, the TGI (NCI-H460 lung) was > 100000 nM and the GI50 (SR leukemia) was 437 nM. The TGI (SR leukemia) was > 100000 nM, the GI50 (HCT-15 colon) was 431 nM and the TGI (HCT-15 colon) was > 100000 nM. For the same molecule, the GI50 (NCI/ADR-RES ovarian) was 1080 nM, the TGI (NCI/ADR-RES ovarian) was > 100000 nM and the GI50 (NCI-H226 lung) was 3850 nM. For the same molecule, the TGI (NCI-H226 lung) was > 100000 nM, the GI50 (CCRF-CEM leukemia) was 597 nM and the TGI (CCRF-CEM leukemia) was > 100000 nM. For the same molecule, the GI50 (OVCAR-5 ovarian) was 4700 nM, the TGI (OVCAR-5 ovarian) was > 100000 nM and the GI50 (SN12C renal) was 1940 nM. For the same molecule, the TGI (SN12C renal) was > 100000 nM, the GI50 (HCC-2998 colon) was 1100 nM and the TGI (HCC-2998 colon) was > 28400 nM. For the same molecule, the GI50 (HOP-92 NSCLC) was 424 nM, the TGI (HOP-92 NSCLC) was 98000 nM and the GI50 (T-47D breast) was 450 nM. For the same molecule, the TGI (T-47D breast) was > 100000 nM, the GI50 (HOP-62 NSCLC) was 1790 nM and the TGI (HOP-62 NSCLC) was > 100000 nM. The GI50 (HL-60(TB) leukemia) was 301 nM, the GI50 (U251 CNS) was 499 nM and the TGI (U251 CNS) was > 25800 nM. For the same molecule, the GI50 (ACHN renal) was 833 nM, the TGI (ACHN renal) was > 100000 nM and the TGI (SK-MEL-28 melanoma) was > 100000 nM. For the same molecule, the GI50 (PC-3 prostate) was 559 nM, the TGI (PC-3 prostate) was > 100000 nM and the GI50 (SF-539 CNS) was 434 nM. For the same molecule, the TGI (SF-539 CNS) was 4360 nM, the TGI (OVCAR-4 ovarian) was > 100000 nM and the GI50 (SK-OV-3 ovarian) was 858 nM. For the same molecule, the TGI (SK-OV-3 ovarian) was > 24900 nM, the GI50 (MOLT-4 leukemia) was 615 nM and the TGI (MOLT-4 leukemia) was > 100000 nM. For the same molecule, the GI50 (DU-145 prostate) was 522 nM, the TGI (DU-145 prostate) was 24600 nM and the GI50 (SF-268 CNS) was 1580 nM. For the same molecule, the TGI (SF-268 CNS) was > 100000 nM, the GI50 (KM12 colon) was 439 nM and the TGI (KM12 colon) was > 100000 nM. The GI50 (SW-620 colon) was 385 nM, the TGI (SW-620 colon) was > 100000 nM and the GI50 (MCF7 breast) was 367 nM. The TGI (MCF7 breast) was > 100000 nM, the GI50 (MALME-3M melanoma) was 441 nM and the TGI (MALME-3M melanoma) was > 100000 nM. For the same molecule, the GI50 (786-0 renal) was 917 nM, the TGI (786-0 renal) was > 100000 nM and the GI50 (A498 renal) was 210 nM. The TGI (A498 renal) was 932 nM, the GI50 (RPMI-8226 leukemia) was 396 nM and the TGI (RPMI-8226 leukemia) was > 56500 nM. The GI50 (SF-295 CNS) was 573 nM, the TGI (SF-295 CNS) was > 30500 nM and the GI50 (BT-549 breast) was 1100 nM. The TGI (BT-549 breast) was > 100000 nM, the GI50 (CAKI-1 renal) was 517 nM and the TGI (CAKI-1 renal) was > 100000 nM. For the same molecule, the GI50 (HCT-116 colon) was 457 nM, the TGI (HCT-116 colon) was > 100000 nM and the GI50 (TK-10 renal) was 11300 nM. For the same molecule, the TGI (TK-10 renal) was > 100000 nM, the GI50 (LOX IMVI melanoma) was 864 nM and the TGI (LOX IMVI melanoma) was > 100000 nM. The GI50 (OVCAR-8 ovarian) was 924 nM, the TGI (OVCAR-8 ovarian) was > 100000 nM and the GI50 (NCI-H522 lung) was 349 nM. It also gave a TGI (NCI-H522 lung) of 3240 nM, a GI50 (OVCAR-3 ovarian) of 325 nM and a TGI (OVCAR-3 ovarian) of 1400 nM. For the same molecule, the GI50 (NCI-H23 lung) was 674 nM, the TGI (NCI-H23 lung) was > 100000 nM and the GI50 (A549 NSCLC) was 610 nM. For the same molecule, the TGI (A549 NSCLC) was > 100000 nM, the GI50 (K-562 leukemia) was 434 nM and the TGI (K-562 leukemia) was > 100000 nM. The TGI (UACC-62 melanoma) was > 100000 nM.

Reference: PubChem BioAssay (NCI)
